PMC12323867 (RSC Medicinal Chemistry, 2025)
Read-outs that look alike come from different tables or passages of the source.

Tests used:
H3K4me2 levels in cells = test system: H3K4me2 levels in cells; set-up: method as in PMID 38742921; settings: cited from earlier work
[1] = target: T1, LSD1-HDAC1-CoREST complex (Homo sapiens, UniProt O60341); assay: LSD1 HRP-coupled demethylase assay, SP2509/SP2577 analogues; format: biochemical; settings: LSD1 enzymatic activity, complex 50 nM, HRP assay; read-out: LSD1-HDAC1-CoREST IC50
T1 construct: full length native LSD1 (UniProt ID: O60341); made in house; host or cells: HEK 293F cells (co-transfection, pcDNA3 vectors)
Method: The analogues synthesised were then tested for their ability to inhibit LSD1 using purified LSD1-HDAC1-CoREST complex (Fig. 2B). We used an established fluorescent read out horseradish peroxidase (HRP) assay to monitor LSD1 enzymatic activity in the CoREST complex[8] (see ESI ^† for full details).
2. Supplementary Information: Biology
2.1. LSD-HDAC1-CoREST expression and purification
Lysis Buffer (Buffer A) Wash Buffer (Buffer B)
• 50 mM Tris/Cl pH 7.5 • 50 mM Tris/Cl pH 7.5
• 50 mM Potassium Acetate • 50 mM Potassium Acetate […]
Cleavage Buffer (Buffer C) Gel Filtration Buffer (Buffer D)
• 50 mM Tris/Cl pH 7.5 Filtered at vacuum.
• 50 mM Potassium Acetate • 50 mM Tris/Cl pH 7.5
• 5 % v/v Glycerol • 50 mM Potassium Acetate
• 0.5 mM tris(2- • 0.5 mM TCEP carboxyethyl)phosphine (TCEP)
The CoREST ternary complex was comprised of full length native LSD1 (UniProt ID: O60341), full length HDAC1 (UniProt ID: Q13547) and N-terminally truncated RCOR1 (86-485aa) (UniProt ID:
Q9UKL0). Protein constructs were cloned into pcDNA3 vector. The RCOR1 constructs contained an N-terminal (His)10(Flag)3 tag followed by a Tev protease cleavage site. The constructs for ternary complex were co-transfected into suspension-grow HEK 293F cells (Thermofisher Scientific) with polyethylenimine (PEI) (Sigma) and harvested after 48 hours. This section of the procedure was carried out as described previously in literature.11,12
Cell pellets from 1.2 L culture were defrosted, and buffer A (30 mL) was added. The solution was sonicated (Soniprep 150) in an beaker of ice using a 9 mm probe at 10 ampules; operated with 10 […]
2.2. SP2509/SP2577 analogues LSD1 HRP-coupled demethylase assay protocol The commercial reagents for the assay were HRP and Amplex® Ultrared, which are available to purchase from ThermoFisher (31490) and Invitrogen (10737474), respectively. HRP was made up to 8 mg/mL stock solution in 1xPBS buffer, divided into 10 µL aliquots, snap-frozen in liquid nitrogen and stored at -80 °C. Amplex® Ultrared was made up to 10 mM solution in DMSO, divided into 20 µL aliquots and wrapped in foil, away from light and stored at -20 °C. For each assay experiment, CoREST complex was diluted to 500 nM in assay buffer (20 mM HEPES pH 7.5 and 50 mM NaCl).
HRP was defrosted by diluting each aliquot in 90 µL 1xPBS solution, making a 0.8 mg/mL solution.
Amplex® Ultrared was made up to 200 µM in assay buffer. HRP and Amplex® Ultrared were pre-mixed before addition to the plate. H3K4Me2 substrate (4 mM in deionised water) was diluted to 300 µM in assay buffer. All stocks were stored on ice during assay preparation.
The assay was carried out using a ‘black well’ 96 well plate (Corning no. 3915) in a reaction volume of 100 μL. The final concentrations in the assay were as follows: 50 nM CoREST complex, 10 μM Amplex® UltraRed, 0.04 mg/mL HRP and 15 μM H3K4Me2 peptide substrate. The final DMSO concentration in each well was 1.1 %. Three wells of each experiments were designated ‘background controls’ and contained 85 μL assay buffer, premixed Amplex® UltraRed and HRP (10 µL) and H3K4Me peptide substrate (300 μM, 5 µL).
A stock solution of inhibitor (1 -5 mM in DMSO) was subjected to an inhibitor dilution series, in Eppendorf tubes, in 100 % DMSO. Each new inhibitor stock (4 μL) was diluted in assay buffer (1 in 75) within a new Eppendorf set with assay buffer (20 mM HEPES pH 7.5 and 50 m M NaCl), ensuring the percentage of DMSO was consistent throughout the series. To each well of interest, Inhibitor in assay buffer (75 μL) was added, and CoREST complex (500 nM, 10 µL) was added thereafter. The plate was placed on a rocker and pre -incubated for 30 mins. To each well, premixed Amplex® UltraRed and HRP (10 µL) was added before H3K4Me 2 peptide substrate in assay buffer solution (300 μM, 5 µL) was added to the wall of the plate. The plate was covered in foil and spun down for one minute before being placed in the plate reader. The final percentage concentration of DMSO in […]

LSD1 [2] = settings: cited from earlier work
LSD1 [3] = test system: LSD1; set-up: method as in PMID 38742921; settings: cited from earlier work

C/C(=N\NC(=O)c1cccc(S(=O)(=O)N2CCN(C)CC2)c1)c1cc(Cl)ccc1O [SP2577]
H3K4me2 levels in cells (H3K4me2 levels in cells): failed to increase H3K4me2 levels | IC50 [1]: 306 nM | IC50 (LSD1 [2]; read-out: LSD1 IC50): 1330 nM | IC50 (LSD1 [2]; read-out: LSD1 mean IC50): 127 nM | ability to increase H3K4me2 on peptides and nucleosomes (LSD1 [3]): no effect
